Data on seven compounds can be found in US8063075B2, “Pyrrolidine ether derivatives as NK3 receptor antagonists” (Hoffmann-La Roche Inc., priority 2008, dated 2011).

For assay [1] the following is noted: phase II trial, cited from earlier work.
Assay [2] addresses T1, recombinant human NK3 receptor (Homo sapiens, UniProt P29371).
T1 construct: expressed in transfected cells; host or cells: HEK293 cells (transient expression), membranes
T1 sequence (P29371 1-465): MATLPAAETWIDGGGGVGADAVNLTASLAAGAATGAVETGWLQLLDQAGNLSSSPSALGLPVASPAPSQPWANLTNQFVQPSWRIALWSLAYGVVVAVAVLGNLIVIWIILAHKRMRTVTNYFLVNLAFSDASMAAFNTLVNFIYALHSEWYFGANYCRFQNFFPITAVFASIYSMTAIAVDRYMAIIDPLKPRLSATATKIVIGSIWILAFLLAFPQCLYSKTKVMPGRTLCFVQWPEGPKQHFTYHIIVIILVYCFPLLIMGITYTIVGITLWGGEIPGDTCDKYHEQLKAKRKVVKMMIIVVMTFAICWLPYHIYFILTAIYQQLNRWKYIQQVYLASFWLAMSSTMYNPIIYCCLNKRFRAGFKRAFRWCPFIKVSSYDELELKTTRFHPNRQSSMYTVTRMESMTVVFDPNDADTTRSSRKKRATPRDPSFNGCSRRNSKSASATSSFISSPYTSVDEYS
Briefly: [3H]SR142801 competition binding assay. Conditions: membranes from HEK293 cells transiently expressing hNK3; [3H]SR142801 at its KD; 75 min RT; read-out: Data [μM] (affinity constant Ki, hNK3 receptor binding). How it is done: [^3H]SR142801 Competition Binding Assay
hNK3 receptor binding experiment were performed using [^3H]SR142801 (Catalog No. TRK1035, specific activity: 74.0 Ci/mmol, Amersham, GE Healthcare UK limited, Buckinghamshire, UK) and membrane isolated from HEK293 cells transiently expressing recombinant human NK3 receptor. After thawing, the membrane homogenates were centrifuged at 48,000×g for 10 min at 4° C., the pellets were resuspended in the 50 mM Tris-HCl, 4 mM MnCl2, 1 μM phosphoramidon, 0.1% BSA binding buffer at pH 7.4 to a final assay concentration of 5 μg protein/well. […] At the end of the incubation, membranes were filtered onto unitfilter (96-well white microplate with bonded GF/C filter preincubated 1 h in 0.3% PEI+0.3% BSA, Packard BioScience, Meriden, Conn.) with a Filtermate 196 harvester (Packard BioScience) and washed 4 times with ice-cold 50 mM Tris-HCl, pH 7.4 buffer. Nonspecific binding was measured in the presence of 10 μM SB222200 for both radioligands. The radioactivity on the filter was counted (5 min) on a Packard Top-count microplate scintillation counter with quenching correction after addition of 45 μl of microscint 40 (Can berra Packard S. A., Zürich, Switzerland) and shaking for 1 h. Inhibition curves were fitted according to the Hill equation: y=100/(1+(x/IC50)^nH), where nH=slope factor using Excel-fit 4 software (Microsoft). IC50 values were derived from the inhibition curve and the affinity constant (Ki) values were calculated using the Cheng-Prussoff equation Ki=IC50/(1+[L]/KD) where [L] is the concentration of radioligand and KD is its dissociation constant at the receptor, derived from the saturation isotherm. All experiments were performed in duplicate and the mean±standard error (SEM) of the individual Ki values was calculated.

Turning to `CC(=O)N(C)C1(c2ccccc2)CCN(CCC[C@]2(c3ccc(Cl)c(Cl)c3)CCCN(C(=O)c3ccccc3)C2)CC1` [SR 142,801, Osanetant], in assay [1] (altered behaviour, delusion, hallucinations, extreme emotions, excited motor activity, incoherent speech), the “activity on positive symptoms of schizophrenia” value is “active”. Besides, in assay [1] (depression, anhedonia, social isolation or memory and attention deficits), the “activity in the treatment of negative symptoms” value is “inactive”. Regarding `C[C@H](Oc1ccc(C#N)cn1)[C@H]1CN(C(=O)C2CCN(C(=O)OC(C)(C)C)CC2)C[C@@H]1c1ccc(Cl)c(Cl)c1` (racemic) [Example 13, 4-[(3RS,4SR)-3-[(SR)-1-(5-Cyano-pyridin-2-yloxy)-ethyl]-4-(3,4-dichloro-phenyl)-pyrrolidine-1-carbonyl]-piperidine-1-carboxylic acid tert-butyl ester], the Ki in assay [2] is 0.0044 µM. Same read-out and setting: to `CC(=O)N1CCC(C(=O)N2C[C@H]([C@H](C)Oc3ccc(C#N)cn3)[C@@H](c3ccc(Cl)c(Cl)c3)C2)CC1` (racemic) [Example 2, 6-{(SR)-1-[(3RS,4SR)-1-(1-Acetyl-piperidine-4-carbonyl)-4-(3,4-dichloro-phenyl)-pyrrolidin-3-yl]-ethoxy}-nicotinonitrile] belongs 0.0076 µM. As to `C[C@H](Oc1ccc(C#N)cn1)[C@H]1CN(C(=O)C2CCN(C(=O)CC#N)CC2)C[C@@H]1c1ccc(Cl)c(Cl)c1` (racemic) [Example 23, 6-{(SR)-1-[(3RS,4SR)-1-[1-(2-Cyano-acetyl)-piperidine-4-carbonyl]-4-(3,4-dichloro-phenyl)-pyrrolidin-3-yl]-ethoxy}-nicotinonitrile], the Ki in assay [2] is 0.0075 µM. The same measure, in the same setting: to `C[C@H](Oc1ccc(Cl)cn1)[C@H]1CN(C(=O)C2CCC(=O)CC2)C[C@@H]1c1ccc(Cl)c(Cl)c1` (racemic) [Example 12, 4-[(3RS,4SR)-3-[(SR)-1-(5-Chloro-pyridin-2-yloxy)-ethyl]-4-(3,4-dichloro-phenyl)-pyrrolidine-1-carbonyl]-cyclohexanone] belongs 0.0092 µM; to `C[C@H](Oc1ccc(Cl)cn1)[C@H]1CN(C(=O)C2CCN(C(=O)C3(C)CC3)CC2)C[C@@H]1c1ccc(Cl)c(F)c1` [Example 53, {(3S,4R)-3-(4-Chloro-3-fluoro-phenyl)-4-[(S)-1-(5-chloro-pyridin-2-yloxy)-ethyl]-pyrrolidin-1-yl}-[1-(1-methyl-cyclopropanecarbonyl)-piperidin-4-yl]-methanone], 0.0008 µM.

`C[C@H](Oc1ccc(Cl)cn1)[C@H]1CN(C(=O)C2CCN(C(=O)C3(C)CC3)CC2)C[C@@H]1c1ccc(Cl)cc1` [Example 52, {(3S,4R)-3-(4-Chloro-phenyl)-4-[(S)-1-(5-chloro-pyridin-2-yloxy)-ethyl]-pyrrolidin-1-yl}-[1-(1-methyl-cyclopropanecarbonyl)-piperidin-4-yl]-methanone]: the Ki in assay [2] is 0.001 µM.

One may read the Ki as a dissociation constant, usually derived from enzyme kinetics or from competition with a known ligand.
